Results as given in patent publication US11439641B2, “Pyrimidine JAK inhibitors for the treatment of skin diseases” (THERAVANCE BIOPHARMA R&D IP, LLC, priority 2019, dated 2022).

Columns and labels:
[1] = molecular target: JAK1 (Homo sapiens (Human), UniProt P23458); experiment: Biochemical JAK and Tyk2 Kinase Assays (LanthaScreen), JAK1; settings: 25 μM ATP (Km); pIC50 converted to pKi by Cheng-Prusoff
Protocol: (§1) Assay 1: Biochemical JAK and Tyk2 Kinase Assays
(§2) A panel of four LanthaScreen JAK biochemical assays (JAK1, 2, 3 and Tyk2) were carried in a common kinase reaction buffer (50 mM HEPES, pH 7.5, 0.01% Brij-35, 10 mM MgCl2, and 1 mM EGTA). Recombinant GST-tagged JAK enzymes and a GFP-tagged STAT1 peptide substrate were obtained from Life Technologies.
(§3) Serially or discretely diluted compounds were pre-incubated with each of the four JAK enzymes and the substrate in white 384-well microplates (Corning) at ambient temperature for 1 h. ATP was subsequently added to initiate the kinase reactions in 10 μL total volume, with 1% DMSO. The final enzyme concentrations for JAK1, 2, 3 and Tyk2 are 4.2 nM, 0.1 nM, 1 nM, and 0.25 nM respectively; the corresponding Km ATP concentrations used are 25 μM, 3 μM, 1.6 μM, and 10 μM; while the substrate concentration is 200 nM for all four assays. Kinase reactions were allowed to proceed for 1 hour at ambient temperature before a 10 μL preparation of EDTA (10 mM final concentration) and Tb-anti-pSTAT1 (pTyr701) antibody (Life Technologies, 2 nM final concentration) in TR-FRET dilution buffer (Life Technologies) was added. The plates were allowed to incubate at ambient temperature for 1 h before being read on the EnVision reader (Perkin Elmer). Emission ratio signals (520 nm/495 nm) were recorded and utilized to calculate the percent inhibition values based on DMSO and background controls.
(§4) For dose-response analysis, percent inhibition data were plotted vs. compound concentrations, and IC50 values were determined from a 4-parameter robust fit model with the Prism software (GraphPad Software). Results were expressed as pIC50 (negative logarithm of IC50) and subsequently converted to pKi (negative logarithm of dissociation constant, Ki) using the Cheng-Prusoff equation.

[2] = molecular target: JAK3 (Homo sapiens (Human), UniProt P52333); experiment: Biochemical JAK and Tyk2 Kinase Assays (LanthaScreen), JAK3; settings: 1.6 μM ATP (Km); pIC50 converted to pKi by Cheng-Prusoff
Protocol: as §1, §2, §3, §4

[3] = test system: IL-2 stimulated pSTAT5 in Tall-1 T cells; experiment: Inhibition of IL-2 Stimulated pSTAT5 in Tall-1 T Cells; format: cell-based; settings: Tall-1 human T cell line, IL-2 300 ng/mL, AlphaLisa
Protocol: Assay 2: Inhibition of IL-2 Stimulated pSTAT5 in Tall-1 T Cells
The potency of test compounds for inhibition of interleukin-2 (IL-2) stimulated STATS phosphorylation was measured in the Tall-1 human T cell line (DSMZ) using AlphaLisa. Because IL-2 signals through JAK1/3, this assay provides a measure of JAK1/3 cellular potency.
Phosphorylated STATS was measured via the AlphaLISA SureFire Ultra pSTAT5 (Tyr694/699) kit (PerkinElmer). Human T cells from the Tall-1 cell line were cultured in a 37° C., 5% CO2 humidified incubator in RPMI (Life Technologies) supplemented with 15% Heat Inactivated Fetal Bovine Serum (FBS, Life Technologies), 2 mM Glutamax (Life Technologies), 25 mM HEPES (Life Technologies) and 1× Pen/Strep (Life Technologies). Compounds were serially diluted in DMSO and dispensed acoustically to empty wells. Assay media (phenol red-free DMEM (Life Technologies) supplemented with 10% FBS (ATCC)) was dispensed (4 μL/well) and plates shaken at 900 rpm for 10 mins. Cells were seeded at 45,000 cells/well in assay media (4 μL/well), and incubated at 37° C., 5% CO2 for 1 hour, followed by the addition of IL-2 (R&D Systems; final concentration 300 ng/mL) in pre-warmed assay media (4 μL) for 30 minutes. After cytokine stimulation, cells were lysed with 6 ul of 3× AlphaLisa Lysis Buffer (PerkinElmer) containing 1× PhosStop and Complete tablets (Roche). The lysate was shaken at 900 rpm for 10 minutes at room temperature (RT). Phosphorylated STATS was measured via the pSTAT5 AlphaLisa kit (PerkinElmer). Freshly prepared acceptor bead mixture was dispensed onto lysate (51) under green filtered <100 lux light. Plates were shaken at 900 rpm for 2 mins, briefly spun down, and incubated for 2 hrs at RT in the dark. Donor beads were dispensed (5 μL) under green filtered <100 lux light. Plates were shaken at 900 rpm for 2 minutes, briefly spun down, and incubated overnight at RT in the dark. Luminescence was measured with excitation at 689 nm and emission at 570 nm using an EnVision plate r reader (PerkinElmer) under green filtered <100 lux light.
To determine the inhibitory potency of test compounds in response to IL-2, the average emission intensity of beads bound to pSTAT5 was measured in a human T cell line. IC50 values were determined from analysis of the inhibition curves of signal intensity versus compound concentration. Data are expressed as pIC50 (negative decadic logarithm IC50) values (mean±standard deviation).

[4] = Aqueous Solubility Assay; settings: PBS buffer pH 7.4; maximum upper limit 1,000 μM
[5] = Solubility Assay in Organic Excipients; settings: maximum upper limit 20,000 μM; for Solubility in MCT (mg/mL): medium chain triglycerides (MCT)

Chain of JAK1 (P23458 whole entry): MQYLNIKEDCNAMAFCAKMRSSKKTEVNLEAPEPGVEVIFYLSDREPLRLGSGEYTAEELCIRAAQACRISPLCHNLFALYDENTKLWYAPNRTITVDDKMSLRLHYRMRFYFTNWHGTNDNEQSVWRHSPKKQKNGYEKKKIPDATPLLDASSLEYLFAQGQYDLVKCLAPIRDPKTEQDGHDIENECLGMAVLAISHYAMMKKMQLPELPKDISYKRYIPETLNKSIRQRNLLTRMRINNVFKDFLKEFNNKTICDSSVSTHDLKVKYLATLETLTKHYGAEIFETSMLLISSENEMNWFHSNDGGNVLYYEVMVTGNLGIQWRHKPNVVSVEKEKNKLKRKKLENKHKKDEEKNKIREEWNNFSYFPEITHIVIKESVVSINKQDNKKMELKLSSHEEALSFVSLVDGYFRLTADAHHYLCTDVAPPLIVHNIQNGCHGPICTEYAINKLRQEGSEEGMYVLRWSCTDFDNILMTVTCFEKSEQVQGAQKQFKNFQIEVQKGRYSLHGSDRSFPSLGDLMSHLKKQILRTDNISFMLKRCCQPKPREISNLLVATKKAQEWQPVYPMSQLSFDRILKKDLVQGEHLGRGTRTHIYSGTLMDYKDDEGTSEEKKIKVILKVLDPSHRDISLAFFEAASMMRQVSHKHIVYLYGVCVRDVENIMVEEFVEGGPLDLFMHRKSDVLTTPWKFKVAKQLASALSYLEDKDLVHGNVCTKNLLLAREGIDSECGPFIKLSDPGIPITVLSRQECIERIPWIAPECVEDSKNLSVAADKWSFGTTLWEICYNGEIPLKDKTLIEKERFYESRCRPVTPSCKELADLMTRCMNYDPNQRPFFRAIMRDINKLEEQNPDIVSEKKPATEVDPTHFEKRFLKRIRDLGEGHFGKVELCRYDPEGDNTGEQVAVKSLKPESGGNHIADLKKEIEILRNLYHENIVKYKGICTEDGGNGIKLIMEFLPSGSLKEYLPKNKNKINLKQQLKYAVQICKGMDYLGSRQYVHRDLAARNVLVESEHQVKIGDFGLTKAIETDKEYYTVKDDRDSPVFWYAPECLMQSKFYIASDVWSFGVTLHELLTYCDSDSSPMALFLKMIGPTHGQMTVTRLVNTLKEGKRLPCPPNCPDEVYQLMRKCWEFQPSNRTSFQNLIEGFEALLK
Chain of JAK3 (P52333 whole entry): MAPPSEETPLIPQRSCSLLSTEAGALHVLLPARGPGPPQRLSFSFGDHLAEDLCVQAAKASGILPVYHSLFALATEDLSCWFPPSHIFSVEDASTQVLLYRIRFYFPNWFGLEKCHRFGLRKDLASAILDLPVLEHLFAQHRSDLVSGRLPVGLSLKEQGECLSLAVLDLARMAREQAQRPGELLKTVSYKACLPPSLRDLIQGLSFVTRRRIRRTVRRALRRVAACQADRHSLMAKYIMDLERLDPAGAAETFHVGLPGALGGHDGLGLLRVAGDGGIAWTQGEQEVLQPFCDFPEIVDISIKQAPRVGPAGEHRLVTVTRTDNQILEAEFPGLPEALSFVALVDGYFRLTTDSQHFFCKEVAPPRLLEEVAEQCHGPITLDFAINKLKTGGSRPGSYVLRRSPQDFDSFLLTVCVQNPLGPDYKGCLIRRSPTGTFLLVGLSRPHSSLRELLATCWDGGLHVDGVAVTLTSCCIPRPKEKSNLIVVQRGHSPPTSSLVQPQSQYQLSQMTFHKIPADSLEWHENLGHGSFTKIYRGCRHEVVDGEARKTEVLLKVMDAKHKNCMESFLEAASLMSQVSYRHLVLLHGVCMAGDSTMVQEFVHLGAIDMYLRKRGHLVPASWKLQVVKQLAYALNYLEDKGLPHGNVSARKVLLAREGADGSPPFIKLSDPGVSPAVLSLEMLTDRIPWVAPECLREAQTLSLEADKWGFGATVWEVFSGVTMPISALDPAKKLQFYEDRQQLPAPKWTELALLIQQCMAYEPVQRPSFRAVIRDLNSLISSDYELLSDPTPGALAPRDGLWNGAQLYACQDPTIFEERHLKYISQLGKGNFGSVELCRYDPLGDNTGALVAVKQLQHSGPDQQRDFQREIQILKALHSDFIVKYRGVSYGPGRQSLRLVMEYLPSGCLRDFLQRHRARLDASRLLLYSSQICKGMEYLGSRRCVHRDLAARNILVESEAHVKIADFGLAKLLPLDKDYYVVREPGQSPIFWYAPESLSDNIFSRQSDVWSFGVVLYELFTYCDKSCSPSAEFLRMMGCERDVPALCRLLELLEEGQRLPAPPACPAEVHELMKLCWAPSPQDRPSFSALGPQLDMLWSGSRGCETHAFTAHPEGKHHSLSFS

SMILES | JAK 1 (pKi) [1] | JAK 3 (pKi) [2] | Tall-1 IL2 pSTAT5 (pIC50) [3] | Solubility at PH 7.4 (μmol) [4] | Solubility in PEG400 (mg/mL) [5] | Solubility in Diisopropyl adipate (mg/mL) [5] | Solubility in MCT (mg/mL) [5] | Solubility in Propylene glycol (mg/mL) [5]
CCS(=O)(=O)N1[C@@H]2CCC[C@H]1C[C@H](N(C)c1nc(Nc3cc(C)[nH]n3)cc(C3CCOC(C)(C)C3)n1)C2 (stereo partly drawn) [Compound 2, 6-(2,2-dimethyltetrahydro-2H-pyran-4-yl)-N2-((1R,3s,5S)-9-(ethylsulfonyl)-9-azabicyclo[3.3.1]nonan-3-yl)-N2-methyl-N4-(5-methyl-1H-pyrazol-3-yl)pyrimidine-2,4-diamine] | B (B represents a pKi value between 9 and 10 (Ki between 1 nM and 0.1 nM)) | B (B represents a pKi value between 9 and 10 (Ki between 1 nM and 0.1 nM)) | A (A represents a pIC50 value ≥8.0) | C (C represents a value between 50 and 250) | C (C represents a value below 5) | C (C represents a value below 5) | C (C represents a value below 5) | C (C represents a value below 5)
COC(=O)N1[C@@H]2CCC[C@H]1C[C@H](N(C)c1nc(Nc3cc(C)[nH]n3)cc(C3CCOCC3)n1)C2 [Compound 3, methyl (1R,3s,5S)-3-(methyl(4-((5-methyl-1H-pyrazol-3-yl)amino)-6-(tetrahydro-2H-pyran-4-yl)pyrimidin-2-yl)amino)-9-azabicyclo[3.3.1]nonane-9-carboxylate] | B (B represents a pKi value between 9 and 10 (Ki between 1 nM and 0.1 nM)) | B (B represents a pKi value between 9 and 10 (Ki between 1 nM and 0.1 nM)) | A (A represents a pIC50 value ≥8.0) | E (E represents a value below 10) | C (C represents a value below 5) | C (C represents a value below 5) | C (C represents a value below 5) | C (C represents a value below 5)
COC(=O)N1[C@@H]2CCC[C@H]1C[C@H](N(C)c1nc(Nc3cc(C)[nH]n3)cc(C3CCOC3)n1)C2 (stereo partly drawn) [Compound 6, Methyl (1R,3s,5S)-3-(methyl(4-((5-methyl-1H-pyrazol-3-yl)amino)-6-(tetrahydrofuran-3-yl)pyrimidin-2-yl)amino)-9-azabicyclo[3.3.1]nonane-9-carboxylate] | A (A represents a pKi value ≥10 (Ki≤0.1 nM)) | C (C represents a pKi value between 8 and 9 (Ki between 10 nM and 1 nM)) | A (A represents a pIC50 value ≥8.0) | D (D represents a value between 10 and 50) | C (C represents a value below 5) | C (C represents a value below 5) | C (C represents a value below 5) | C (C represents a value below 5)
CCC(=O)N1[C@@H]2CCC[C@H]1C[C@H](N(C)c1nc(Nc3cc(C)[nH]n3)cc(O[C@@H]3CCOC3)n1)C2 [Compound 17, 1-((1R,3s,5S)-3-(methyl(4-((5-methyl-1H-pyrazol-3-yl)amino)-6-(((R)-tetrahydrofuran-3-yl)oxy)pyrimidin-2-yl)amino)-9-azabicyclo[3.3.1]nonan-9-yl)propan-1-one] | B (B represents a pKi value between 9 and 10 (Ki between 1 nM and 0.1 nM)) | C (C represents a pKi value between 8 and 9 (Ki between 10 nM and 1 nM)) | A (A represents a pIC50 value ≥8.0) | D (D represents a value between 10 and 50) | B (B represents a value between 5 and 10) | A (A represents a value above 10) | C (C represents a value below 5) | A (A represents a value above 10)
CCS(=O)(=O)N1[C@@H]2CCC[C@H]1C[C@H](N(C)c1nc(Nc3cc(C)[nH]n3)cc(OC3COC3)n1)C2 [Compound 34, N^2-((1R,3s,5S)-9-(ethylsulfonyl)-9-azabicyclo[3.3.1]nonan-3-yl)-N2-methyl-N4-(5-methyl-1H-pyrazol-3-yl)-6-(oxetan-3-yloxy)pyrimidine-2,4-diamine] | A (A represents a pKi value ≥10 (Ki≤0.1 nM)) | B (B represents a pKi value between 9 and 10 (Ki between 1 nM and 0.1 nM)) | A (A represents a pIC50 value ≥8.0) | E (E represents a value below 10) | C (C represents a value below 5) | C (C represents a value below 5) | C (C represents a value below 5) | C (C represents a value below 5)
